Results published in ChEMBL document CHEMBL5725494, “S1P receptors modulators and their use thereof” (2017).
pEC50: −log10 of the molar value.

How the values were obtained:
[1] = target: Sphingosine 1-phosphate receptor 1 (Homo sapiens, UniProt P21453); experiment: (§1) S1P Assay: Selected Compounds of the Examples were evaluated at Millipore Corporation, USA, using S1P1 receptor; [35S]-GTPgamaS binding assay. A [35S]-GTPgamaS binding assay at Millipore was conducted by GPCR Profiler¿ Custom Service Laboratory, Temecula, Calif., Millipore, Inc. to monitor dose-dependent agonist selectivity for selected Examples against the S1P1 receptors. The assay was completed with sample compounds subjected to an eight-point, four-fold dose response curve with starting concentration of 10 μM. Selectivity was determined upon initial addition of compounds followed by a 30 minute incubation at 30° C. Following compound incubation, bounded [35S]-GTPgamaS was determined by filtration and scintillation counting. Independently, selected compounds were evaluated for S1P1 and S1P3 agonistic activity. The S1P1 assay system was GTPgama-S35 binding in membranes from CHO K1 cells, expressing S1P1 human receptor. The S1P3 assay system was calcium mobilization in CHO K1 cells expressing S1P3 human receptor. There was no significant background response to S1P in the CHO K1 cells with either assay. Compounds were tested initially at a concentration of 10 μM.; format: cell membranes
[2] = target: Sphingosine 1-phosphate receptor 3 (Homo sapiens, UniProt Q99500); experiment: as §1; format: cell membranes
Chain of Sphingosine 1-phosphate receptor 3 (Q99500 whole entry): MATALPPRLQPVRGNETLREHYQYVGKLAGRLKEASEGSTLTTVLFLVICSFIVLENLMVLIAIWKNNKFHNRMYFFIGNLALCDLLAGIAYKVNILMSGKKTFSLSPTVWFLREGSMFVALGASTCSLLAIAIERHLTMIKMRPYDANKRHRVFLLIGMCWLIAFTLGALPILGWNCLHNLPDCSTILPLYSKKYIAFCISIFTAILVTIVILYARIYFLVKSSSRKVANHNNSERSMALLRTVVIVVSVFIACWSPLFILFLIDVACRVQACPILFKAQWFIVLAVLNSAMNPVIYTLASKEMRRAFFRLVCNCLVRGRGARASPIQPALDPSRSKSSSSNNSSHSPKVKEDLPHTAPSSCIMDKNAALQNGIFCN

Chain of Sphingosine 1-phosphate receptor 1 (P21453 whole entry): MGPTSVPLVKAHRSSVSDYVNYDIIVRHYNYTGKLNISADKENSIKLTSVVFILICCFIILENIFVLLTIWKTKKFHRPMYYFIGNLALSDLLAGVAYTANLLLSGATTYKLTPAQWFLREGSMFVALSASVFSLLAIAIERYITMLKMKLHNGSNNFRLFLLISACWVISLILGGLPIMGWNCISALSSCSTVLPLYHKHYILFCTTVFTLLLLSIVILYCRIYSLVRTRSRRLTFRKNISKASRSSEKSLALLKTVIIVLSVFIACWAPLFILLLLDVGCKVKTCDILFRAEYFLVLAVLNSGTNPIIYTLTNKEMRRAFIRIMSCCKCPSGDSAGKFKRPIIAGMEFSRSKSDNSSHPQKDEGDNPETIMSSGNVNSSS

Compound | pEC50 [1] | pEC50 [2]
COc1ccc(COc2ccc(CN3CC(C(=O)O)C3)cc2)cc1C12CC3CC(CC(C3)C1)C2 | 7.22 | –
CC(C)N(Cc1ccc(-c2ccc(CN3CC(C(=O)O)C3)cc2)cc1)c1ccc(F)cc1 | 6.22 | –
CCCCCCCCc1ccc(NC(=O)NCCC(=O)O)cc1 | 6.34 | –
CCOc1ccc(-c2nc(-c3ccc4oc(C(N)(CO)CO)cc4c3)no2)cc1OCC | 7.24 | 6.42
Cc1ccc(/C=C/c2nc(-c3ccc4oc(C(N)(CO)CO)cc4c3)no2)cc1 | 5.74 | –
